This experiment deals with HIV-1 pNL4-3 integrase (Human immunodeficiency virus type 1 group M subtype B (isolate NY5) (HIV-1), UniProt P12497). Put plainly: Determination of enzyme (HIV integrase) inhibitory activity. The class given is biochemical. As to conditions: calculated from inhibition rate (fluorescence). In a few lines:
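Full-length pNL4-3 integrase from E. coli (0.75 μM stock) reacted 60 min at 37° C with compound and biotinylated donor DNA bound to streptavidin plates, in MOPS buffer with 5 mM MgCl2 and 10% DMSO. Digoxigenin-labelled target DNA (25 nM stock) then added for 20 min; strand transfer read by peroxidase anti-digoxigenin fluorescence (Ex 325/Em 420 nm).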

This is an account of results in US10065950B2, “Substituted thiazoles as HIV integrase inhibitors” (Japan Tobacco Inc., priority 2010, dated 2018).

The term IC50 denotes the concentration that gives 50% inhibition.

Consider `CCN1C(=O)c2c(O)c(=O)c(-c3ncc(Cc4ccc(F)cc4)s3)cn2C[C@]1(C)C(=O)N1CCCC1` [Example 294], for which the IC50 was 11 nM.

Regarding `CC(C)N1CC(C)(C(=O)N(C)C)n2cc(-c3nnc(Cc4ccc(F)c(F)c4)s3)c(=O)c(O)c2C1=O` (stereo not shown) [Example 157], the IC50 was 29 nM. For `COC[C@@H]1Cn2cc(-c3nnc(Cc4ccc(F)cc4F)s3)c(=O)c(O)c2C(=O)N1C1CCC1` [Example 93], the IC50 was 7.8 nM. With `CCN(C)C(=O)[C@]1(COC)CN(C(C)C)C(=O)c2c(O)c(=O)c(-c3nnc(Cc4ccc(F)cc4)s3)cn21` [Example 396] the figure was 15 nM; with `CN(C)C(=O)[C@@]1(C)CN(C(C)(C)C)C(=O)c2c(O)c(=O)c(-c3nnc(Cc4ccc(F)cc4)s3)cn21` [Example 181], 14 nM; with `CC(C)N1CC(CN2C(=O)c3ccccc3C2=O)n2cc(-c3ncc(Cc4ccc(F)cc4F)s3)c(=O)c(O)c2C1=O` (stereo not shown) [Example 65], 13 nM.

On to `CCOCCOC[C@H]1CN(C(C)C)C(=O)c2c(O)c(=O)c(-c3nnc(Cc4ccc(F)cc4F)s3)cn21` [Example 143], for which the IC50 is 6.9 nM.

Turning to `CC(C)N1CC(CC(=O)N2CCOCC2)n2cc(-c3ncc(Cc4ccc(F)cc4F)s3)c(=O)c(O)c2C1=O` (stereo not shown) [Example 72], the IC50 was 11 nM. With `CC(C)CNC(=O)C1CN(C(C)C)C(=O)c2c(O)c(=O)c(-c3ncc(Cc4ccc(F)cc4F)s3)cn21` (stereo not shown) [Example 32] the figure was 7.7 nM; with `CCC(C)N1C(=O)c2c(O)c(=O)c(-c3nnc(Cc4ccc(F)cc4F)s3)cn2C[C@H]1COC` (stereo partly shown) [Example 145], 5.6 nM. Consider `CCN1C[C@](C)(C(=O)N(C)C)n2cc(-c3nnc(Cc4ccc(F)cc4)s3)c(=O)c(O)c2C1=O` [Example 199], for which the IC50 was 8.4 nM. For the compound `CC(C)N1C(=O)c2c(O)c(=O)c(-c3nnc(Cc4ccc(F)cc4F)s3)cn2CC1CC(=O)N(C)C` (stereo not shown) [Example 75], the IC50 was 9.1 nM.

As to `CCN1C(=O)c2c(O)c(=O)c(-c3nnc(Cc4ccc(F)cc4)s3)cn2C[C@@H]1COC` [Example 113], the half-maximal inhibitory concentration (IC50) is 13 nM. Next, `CCNC(=O)C1(C)CN(C)C(=O)c2c(O)c(=O)c(-c3ncc(Cc4ccc(F)cc4F)s3)cn21` (stereo not shown) [Example 153]: 5.8 nM. Next, `COCCOC[C@@H]1Cn2cc(-c3nnc(Cc4ccc(F)cc4F)s3)c(=O)c(O)c2C(=O)N1CC(C)(C)C` [Example 129]: 12 nM; `COC[C@@H]1Cn2cc(-c3nnc(Cc4ccc(F)cc4)s3)c(=O)c(O)c2C(=O)N1C1CCCC1` [Example 196]: 6.7 nM.

Take `CN(C)C(=O)[C@]1(C)CN(C)C(=O)c2c(O)c(=O)c(-c3ncc(Cc4ccc(F)cc4)s3)cn21` [Example 264]: the IC50 was 8.5 nM. `COCCOC[C@@H]1CN(C(C)C)C(=O)c2c(O)c(=O)c(-c3nnc(Cc4ccc(F)cc4F)s3)cn21` [Example 46]: the IC50 was 11 nM. With `CCNC(=O)[C@]1(C)CN(C2CC2)C(=O)c2c(O)c(=O)c(-c3ncc(Cc4ccc(F)cc4)s3)cn21` [Example 267] the figure was 11 nM; with `CC1(C)Cn2cc(-c3nnc(Cc4ccc(F)cc4F)s3)c(=O)c(O)c2C(=O)N1C1CCOC1` (stereo not shown) [Example 70], 8.9 nM; with `CC(C)N1C[C@@](C)(C(=O)N(C)C)n2cc(-c3nnc(Cc4ccc(F)cc4F)s3)c(=O)c(O)c2C1=O` [Example 171], 16 nM. Consider `COC[C@H]1CN(C(C)C)C(=O)c2c(O)c(=O)c(-c3nnc(CCc4ccc(F)cc4)s3)cn21` [Example 241], for which the concentration for half-maximal inhibition (IC50) was 14 nM.

For `CCN1C[C@](C)(C(=O)N2CC(OC)C2)n2cc(-c3ncc(Cc4ccc(F)cc4)s3)c(=O)c(O)c2C1=O` [Example 263], the IC50 was 9 nM. Next, `CCN1C(=O)c2c(O)c(=O)c(-c3nnc(Cc4ccc(F)cc4)s3)cn2[C@H](COC)[C@H]1C` [Example 289]: 10 nM; `CC(C)N1CC(CC(=O)NC2CC2)n2cc(-c3ncc(Cc4ccc(F)cc4F)s3)c(=O)c(O)c2C1=O` (stereo not shown) [Example 71]: 11 nM. Next, `COCCOC[C@@H]1Cn2cc(-c3nnc(Cc4ccc(F)cc4F)s3)c(=O)c(O)c2C(=O)N1CC(C)C` [Example 48]: 6.9 nM; `CC(C)[C@H]1CN(C(C)C)C(=O)c2c(O)c(=O)c(-c3nnc(Cc4ccc(F)cc4)s3)cn21` [Example 194]: 8.2 nM.

For `CCN1C(=O)c2c(O)c(=O)c(-c3ncc(Cc4ccc(F)cc4)s3)cn2C[C@@]1(C)C(=O)NC` [Example 252], the IC50 was 9.2 nM. Next, `COCCOCC1(C)CN(C(C)C)C(=O)c2c(O)c(=O)c(-c3ncc(Cc4ccc(F)cc4F)s3)cn21` (stereo not shown) [Example 122]: 19 nM. On to `CC(C)N1CC(C)(C(=O)N2CCCC2)n2cc(-c3ncc(Cc4ccc(F)cc4)s3)c(=O)c(O)c2C1=O` (stereo not shown) [Example 109], for which the IC50 is 21 nM.

Take `CNC(=O)C1CN(C(C)C)C(=O)c2c(O)c(=O)c(-c3ncc(Cc4ccc(F)cc4F)s3)cn21` (stereo not shown) [Example 22]: the IC50 is 7 nM.

As to `CCNC(=O)[C@@]1(C)CN([C@@H](C)C2CC2)C(=O)c2c(O)c(=O)c(-c3ncc(Cc4ccc(F)cc4)s3)cn21` [Example 276], the IC50 was 16 nM. In the case of `CO[C@H]1CCN(C(=O)[C@@]2(C)CN(C(C)C)C(=O)c3c(O)c(=O)c(-c4nnc(Cc5ccc(F)cc5)s4)cn32)C1` [Example 212], the half-inhibitory concentration (IC50) is 14 nM. Regarding `CCN1C(=O)c2c(O)c(=O)c(-c3nnc(Cc4ccc(F)cc4F)s3)cn2C[C@H]1COC` [Example 102], the IC50 was 7.1 nM. Regarding `COCCOC[C@@H]1Cn2cc(-c3nnc(Cc4ccc(F)cc4)s3)c(=O)c(O)c2C(=O)N1C(C)C` [Example 83], the IC50 was 7.1 nM.

With `CCN(C)C(=O)C1(C)CN(C)C(=O)c2c(O)c(=O)c(-c3ncc(Cc4ccc(F)cc4F)s3)cn21` (stereo not shown) [Example 161], the IC50 was 7.8 nM. For `COC[C@H]1[C@@H](C)N(CC2CC2)C(=O)c2c(O)c(=O)c(-c3nnc(Cc4ccc(F)cc4)s3)cn21` [Example 259], the IC50 was 9 nM.

For the compound `CC(C)N1CC(C(=O)O)n2cc(-c3ncc(Cc4ccc(F)cc4F)s3)c(=O)c(O)c2C1=O` (stereo not shown) [Example 23], the concentration for half-maximal inhibition (IC50) was 12 nM. Next, `CC(C)N1C[C@H](Cn2cnnn2)n2cc(-c3nnc(Cc4ccc(F)cc4)s3)c(=O)c(O)c2C1=O` [Example 359]: 4.8 nM. Turning to `CC(C)N1C[C@H](CS(=O)(=O)C(C)(C)C)n2cc(-c3nnc(Cc4ccc(F)cc4)s3)c(=O)c(O)c2C1=O` [Example 360], the IC50 was 11 nM. With `CC(C)N1C(=O)c2c(O)c(=O)c(-c3nnc(Cc4ccc(F)cc4F)s3)cn2C[C@H]1C` [Example 156] the figure was 4.6 nM. With `CC(C)N1CC(CC(=O)N2CCCCC2)n2cc(-c3ncc(Cc4ccc(F)cc4F)s3)c(=O)c(O)c2C1=O` (stereo not shown) [Example 41] the figure was 7.2 nM; with `CCC(=O)NCC1CN(C(C)C)C(=O)c2c(O)c(=O)c(-c3ncc(Cc4ccc(F)cc4F)s3)cn21` (stereo not shown) [Example 68], 9.8 nM. With `COCCOC[C@H]1Cn2cc(-c3nnc(Cc4ccc(F)cc4)s3)c(=O)c(O)c2C(=O)N1C(C)C` [Example 120] the figure was 15 nM. As for `CC(C)N1C[C@](C)(C(=O)N2CCCC2)n2cc(-c3nnc(Cc4ccc(F)cc4F)s3)c(=O)c(O)c2C1=O` [Example 170], the IC50 is 12 nM. For `CC(C)N1CC(C)(C(=O)N2CCCCC2)n2cc(-c3ncc(Cc4ccc(F)cc4)s3)c(=O)c(O)c2C1=O` (stereo not shown) [Example 108], the half-inhibitory concentration (IC50) was 18 nM.
